# Measurements published in patent US6335348B1, “Nitrogen-containing linear and azepinyl/ compositions and uses for vision and memory disorders” (GPI NIL Holdings, Inc., priority 1998, dated 2002).
# Where two headings read alike, the source gives them in different places. Marks after values point to notes of the source that are not given here.
# Key:
# [1] = tested on: retinal ganglion cells and optic nerve axons; assay: Optic nerve transection, 14 or 28 day treatment, evaluated 90 days after transection; type: in vivo, Sprague Dawley rats; details: for Proximal optic nerve myelin basic protein Density: % areal coverage of optic nerve cross section, ± SEM; for Distal optic nerve: shrinkage of cross sectional area: compared to sham control
# Excerpt: All eyes and optic nerves stumps were removed.
# retinal ganglion cells = assay: Example 13: optic nerve transection, 28 days treatment, sacrifice 90 days after transection; type: in vivo, Sprague Dawley rats; details: 10 mg/kg/day s.c. for 28 days
# Excerpt: Retinal ganglion cells in adult male Sprague Dawley rats were retrogradely labeled by fluorogold injection in the LGNd and four days later the optic nerves were transected 5 mm behind the globe. […] All experimental animals and controls were sacrificed 90 days after transection.
# [2] = tested on: streptozotocin-induced diabetic rat; assay: Streptozotocin-induced diabetic sensory neuropathy, hot plate and tail flick; type: in vivo, Male Wistar rats; details: lesioned animals treated for 6 weeks at 10 mg/kg s.c.
# Protocol: The procedure involved using Male Wistar rats which were given a single injection of streptozotocin (65 mg/kg i.v.). Blood glucose levels were determined weekly for the first three weeks and on the last week of the experiment. Animals were evaluated weekly for signs of sensory neuropathy using the conventional hot plate and tail flick apparatus test procedures.
# FKBP12 = FKBP12 (Homo sapiens, UniProt P62942); assay: Ki test procedure: inhibition of peptidyl-prolyl isomerase (rotamase) activity, chymotrypsin-coupled assay; type: biochemical
# Sequence of FKBP12 (P62942 whole entry, species assumed): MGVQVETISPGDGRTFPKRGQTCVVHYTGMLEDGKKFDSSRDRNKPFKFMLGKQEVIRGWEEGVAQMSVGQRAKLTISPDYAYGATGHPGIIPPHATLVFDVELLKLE
# Excerpt: The inhibition of the prolyl peptidyl cis-trans isomerase activity of FKBP may be measured as an indicator of this affinity. Inhibition of the peptidyl-prolyl isomerase (rotamase) activity of the compounds used in the inventive methods and pharmaceutical compositions can be evaluated by known methods described in the literature (Harding et al., Nature, 1989, 341:758-760; Holt et al. J. Am. Chem. Soc., 115:9923-9938). […] The cis-trans isomerization of an alanine-proline bond in a model substrate, N-succinyl-[…]-nitroanilide, is monitored spectrophotometrically in a chymotrypsin-coupled assay, which releases para-nitroanilide from the trans form of the substrate. The inhibition of this reaction caused by the addition of different concentrations of inhibitor is determined, and the data is analyzed as a change in first-order rate constant as a function of inhibitor concentration to yield the apparent Ki values. […] The reaction is initiated by the addition of […] of substrate (succinyl-[…]-nitroanilide, 5 mg/mL in 2.35 mM LiCl in trifluoroethanol). The absorbance at 390 nm versus time is monitored for 90 seconds using a spectrophotometer and the rate constants are determined from the absorbance versus time data files.
# [3] = Clearance (Table V comments); type: in vitro ADME
# [4] = tested on: retinal ganglion cell axons; assay: Protection of retinal ganglion cell axons from degeneration 14 days after optic nerve transection (Table V); type: in vivo; details: ± SEM
# Excerpt: Efficacy of representative compounds from different immunophilin ligand series in protecting retinal ganglion cell axons from degeneration following optic nerve transection is set forth in Table V.
# [5] = Table V comments, read-out: Ki rotamase
# [6] = apparent Ki, Table C, read-out: Ki
compound,measurement,setting,value
CCC(C)(C)C(=O)C(=O)N1CCC[C@H]1C(=O)OCCCc1cccnc1 [GPI 1046],Proximal optic nerve myelin basic protein Density,[1]; ONT/14 days GPI 1046,did not alter the pattern of myelin degeneration
same,Distal optic nerve: shrinkage of cross sectional area,[1]; ONT/14 days GPI 1046,did not protect against shrinkage of the distal stump
same,Distal optic nerve myelin basic protein Density: myelin loss,"[1]; ONT/14 days GPI 1046, cross sectional area multiplied by myelin density","slightly increase the density,of myelin"
same,RGC Counts,"[1]; ONT/28 days GPI 1046, 10 mg/kg/day sc, 90 days after transection, mean density of Fluoro-gold labeled RGC in 400 μm × 400 μm gridfields",67.9 +
same,Proximal optic nerve myelin basic protein Density,[1]; ONT/28 days GPI 1046,dramatic preservation of the fascicular staining pattern
same,ON axon Count,"[1]; ONT/28 days GPI 1046, calculated by multiplying axonal density by ON area",22.861*
same,Distal optic nerve: shrinkage of cross sectional area,[1]; ONT/28 days GPI 1046,prevented cross sectional shrinkage
same,Distal optic nerve myelin basic protein Density: myelin preservation,"[1]; ONT/28 days GPI 1046, cross sectional area multiplied by myelin density",99% myelin % myelin preservation
same,preservation of axons in the proximal stump (RT97 neurofilament immunohistochemistry),retinal ganglion cells,preserved the axons of virtually all protected neurons
same,latency in hot plate and tail flick,[2],improvement in latency
CCC(C)(C)C(=O)C(=O)N1CCC[C@H]1C(=O)O [L],Ki,FKBP12; [5],≥ 7.74 µM
CCC(C)(C)C(=O)C(=O)N1CCCC[C@H]1C(=O)OC(CCc1ccccc1)CCc1ccccc1 [E],Clearance,[3],41.8 µL/min
O=C(SCCCc1ccccc1)[C@@H]1CCCN1C(=O)NC12CC3CC4(CC(C3)(C4)C1)C2 [Compound B],Ki,FKBP12; [5],0.149 µM
same,RT97 + RGC axon density 14 days after ON transection (% ON axons rescued),[4],100.0% ± 5.2% SEM
O=C(OCCCCc1ccccc1)[C@@H]1CCCCN1S(=O)(=O)Cc1ccccc1 [D],RT97 + RGC axon density 14 days after ON transection (% ON axons rescued),[4],58.4% ± 6.4% SEM
CCC(C)(C)C(=O)C(=O)N1CCC[C@H]1C(=O)SCCC(c1ccccc1)c1ccccc1 [M],RT97 + RGC axon density 14 days after ON transection (% ON axons rescued),[4],−6.3% + 3.9% SEM
COC(=O)C(=O)N1CCCCC1C(=O)OCCCC1CCCC1 (centres unmarked) [Compound 19],Ki,FKBP12; [6],35 µM
CCC(C)(C)C(=O)C(=O)N1CCS[C@@H]1C(=O)OCCCc1cccnc1 [F],RT97 + RGC axon density 14 days after ON transection (% ON axons rescued),[4],55.1% ± 5.9% SEM
CCC(C)(C)C(=O)C(=O)N1CCCC[C@H]1C(N)=O [H],RT97 + RGC axon density 14 days after ON transection (% ON axons rescued),[4],30.3% ± 8.0% SEM
CCC(C)(C)C(=O)C(=O)N1CCC[C@H]1C(=O)CCCCc1cccnc1 [J],RT97 + RGC axon density 14 days after ON transection (% ON axons rescued),[4],15.8% ± 4.8% SEM
CCC(C)(C)C(=O)C(=O)N1CCCC[C@H]1C(=O)SCCC(c1ccccc1)c1ccccc1 [Compound K],Clearance,[3],4.5 µL/min
same,RT97 + RGC axon density 14 days after ON transection (% ON axons rescued),[4],13.0% ± 4.2% SEM
CCC(C)(C)C(=O)C(=O)N1CCCC[C@H]1C(=O)O [G],Ki,FKBP12; [5],> 10 µM
same,RT97 + RGC axon density 14 days after ON transection (% ON axons rescued),[4],34.0% ± 4.8% SEM
COC(=O)C(=O)N1CCCCC1C(=O)OCCCC1CCCCC1 (centres unmarked) [Compound 18],Ki,FKBP12; [6],20 µM
COc1ccc(CCCCOC(=O)C2CCCCN2C(=O)C(=O)c2cc(OC)c(OC)c(OC)c2)cc1 (centres unmarked) [Compound 25],Ki,FKBP12; [6],0.013 µM
